# Assays:
# α-glucosidase = target: T1, α-glucosidase (Saccharomyces cerevisiae, UniProt P53341); test: α-Glucosidase inhibitory test (pNPG); format: biochemical; conditions: according to the efficacy index
# T1 construct: purchased Sigma-Aldrich Chemical Co. (Taufkirchen, Germany)
# Description: The ability of C. pentandra extracts to inhibit the activity of α-glucosidase was assessed according to Kim et al.'s protocol. Shortly, α-glucosidase (1 U/ml) from Saccharomyces cerevisiae was preincubated with 250 μl extracts for 10 minutes. P-nitrophenyl glucopyranoside substrate solution (pNPG, 3 mM) prepared in 20 mM phosphate buffer (pH 6.9) containing 2 mg/ml BSA was added to start the reaction. The reaction mixture was incubated at 37°C for 20 minutes and stopped with 1 ml of Na2CO3 (1 M). α-Glucosidase activity was determined by measuring paranitrophenol released from pNPG at 405 nm. The percent inhibition was calculated as follows: (3) %inhibition=OD control−OD sample/OD control×100.
# [1] = Hydrogen peroxide scavenging activity
# Description: A method previously described by Ruch et al. was used to assess the ability of plant extracts to decompose hydrogen peroxide (H2O2). Briefly, a 40 mM solution of H2O2 prepared in phosphate buffer (pH 7.4) was mixed with graded concentrations (1-300 μg/ml) of extracts or ascorbic acid. After 10 min of incubation, optical densities were read at 230 nm against a blank solution made up of phosphate buffer without H2O2. The percentage of H2O2 scavenging activity was calculated as in the previous test.
# [2] = tested on: BSA oxidation induced by H2O2; test: H2O2-induced protein oxidation assay (BSA thiol groups); set-up: species or system bovine
# Description: (§1) The effect of plant extracts against protein oxidation was evaluated according to the method of Simplicio et al. with some modifications. Zero point five milliliter aliquots of BSA (30 mg/ml) prepared in phosphate buffer saline (50 mM, pH 7.4) were incubated with 0.5 ml of extracts or gallic acid. Fifteen minutes later, 0.5 ml of H2O2 (20 mM) or AAPH (2′,2′-azobis (2-methylpropionamidine) dihydrochloride) solution (50 mM) in another set of experiment, was added to the reaction medium and incubated at 37°C for 30 minutes and 1 hour, respectively. Proteins were precipitated with ammonium sulfate (70%) followed by vigorous shaking and centrifugation at 3000 rpm. The pellet obtained was resuspended in 1.5 ml of PBS, and 0.2 ml of Ellman's reagent was introduced. The level of thiol groups was measured 10 minutes later at 412 nm.
# [3] = Superoxide anion scavenging test (PMS-NADH/NBT)
# Description: Superoxide anions were generated in a phenazine methosulfate- (PMS-) NADH system. The reaction mixture was made of 0.5 ml test solution, 0.95 ml 0.1 M phosphate buffer (pH 7.4), 0.5 ml […] in phosphate buffer (pH 7.4). Extracts were used at concentrations of 1, 3, 10, 30, 100, and 300 μg/ml. Gallic acid was tested at the same concentrations and used as a reference drug. Reduction of nitroblue tetrazolium was monitored at 560 nm on a Helios Epsilon Spectrophotometer (Thermo Fisher Scientific). The test was carried out in triplicate. The percent inhibition was calculated as follows: […]
# [4] = tested on: BSA oxidation induced by AAPH; test: AAPH-induced protein oxidation assay (BSA thiol groups); set-up: species or system bovine
# Description: as §1
# T1 sequence (P53341 whole entry): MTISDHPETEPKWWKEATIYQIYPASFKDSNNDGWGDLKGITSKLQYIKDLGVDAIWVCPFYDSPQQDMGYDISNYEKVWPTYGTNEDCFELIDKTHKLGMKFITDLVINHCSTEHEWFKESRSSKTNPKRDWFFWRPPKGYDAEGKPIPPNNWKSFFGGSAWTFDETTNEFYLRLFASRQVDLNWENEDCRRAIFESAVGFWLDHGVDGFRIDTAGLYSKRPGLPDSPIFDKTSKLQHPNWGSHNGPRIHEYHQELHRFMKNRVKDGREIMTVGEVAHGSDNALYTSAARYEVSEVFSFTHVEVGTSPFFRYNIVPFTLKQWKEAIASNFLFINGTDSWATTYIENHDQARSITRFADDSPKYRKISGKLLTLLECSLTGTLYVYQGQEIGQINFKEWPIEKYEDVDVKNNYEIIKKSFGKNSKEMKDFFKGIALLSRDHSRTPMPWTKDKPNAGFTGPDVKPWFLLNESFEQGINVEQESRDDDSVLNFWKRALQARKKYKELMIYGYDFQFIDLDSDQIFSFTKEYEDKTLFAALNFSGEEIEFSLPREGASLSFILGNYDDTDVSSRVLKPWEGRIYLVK
smiles,measurement,setting,value
"C[C@H]1O[C@H](O[C@H]2[C@H](O)[C@@H](O)[C@@H](O[C@H]3[C@H](O)[C@@H](O)C(O)O[C@@H]3CO)O[C@@H]2CO)[C@H](O)[C@@H](O)[C@@H]1N[C@H]1C=C(CO)[C@@H](O)[C@H](O)[C@H]1O (stereo partly shown) [Acarbose, acarbose]","α-Glucosidase: inhibitory effect, times greater than that of the methanol extract",α-glucosidase,10 times
same,"α-Glucosidase: inhibitory effect, times the magnitude of the aqueous extract",α-glucosidase,more than 15 times
"O=C1O[C@H]([C@@H](O)CO)C(O)=C1O [Ascorbic acid, ascorbic acid]",Hydrogen peroxide EI (efficiency index),[1],4.77
same,Hydrogen peroxide IC50,"[1]; 1-300 μg/ml, 10 min incubation",13.84 µg/mL
"O=C(O)c1cc(O)c(O)c(O)c1 [Gallic acid, gallic acid]",H2O2 protein oxidation EI (efficiency index),[2],1.74
same,H2O2 protein oxidation IC50,"[2]; BSA, H2O2 20 mM, 37°C, 30 minutes",29.9 µg/mL
same,"Superoxide anion EI (efficiency index, maximal activity/IC50)",[3],1.43
same,Superoxide anion IC50,[3]; concentrations 1-300 μg/ml,55.66 µg/mL
same,AAPH protein oxidation EI (efficiency index),[4],0.64
same,AAPH protein oxidation IC50,"[4]; BSA, AAPH 50 mM, 37°C, 1 hour",90.17 µg/mL

# Source: publication PMC7191384, “Multimodal α-Glucosidase and α-Amylase Inhibition and Antioxidant Effect of the Aqueous and Methanol Extracts from the Trunk Bark of Ceiba pentandra” (BioMed Research International, 2020)
